Calls of active or inactive are those of the source. No cut-off for these calls is given here.

Series [1] relates to WiDr. Put plainly: Cytotoxicity against human WiDr cells assessed as reduction in cell proliferation after 72 hrs by sulforhodamine B assay. It is filed as functional, cell-based.
Series [2] is described as follows: Cytotoxicity against human neutrophils at 200 uM after 1 hr by trypan blue exclusion assay. The following applies: neutrophil. It is filed as cell-based.
The subject of series [3] is WiDr. Put plainly: Cytotoxicity against human WiDr cells assessed as reduction in cell proliferation after 24 hrs by sulforhodamine B assay. The series is classed as functional, cell-based.
The test system of series [4] is C2BBe1. Put plainly: Cytotoxicity against human C2BBe1 cells assessed as reduction in cell proliferation after 24 hrs by sulforhodamine B assay. It is filed as functional, cell-based. The following applies: C2BBe1, 24 h.
The test system of series [5] is WiDr. Put plainly: Cytotoxicity against human WiDr cells assessed as reduction in cell proliferation after 96 hrs by sulforhodamine B assay. The series is classed as functional, cell-based.
The test system of series [6] is C2BBe1. Put plainly: Cytotoxicity against human C2BBe1 cells assessed as reduction in cell proliferation after 48 hrs by sulforhodamine B assay. As to conditions: C2BBe1, 48 h. It is filed as functional, cell-based.
Series [7] has as its system C2BBe1. Put plainly: Cytotoxicity against human C2BBe1 cells assessed as reduction in cell proliferation after 96 hrs by sulforhodamine B assay. It is filed as functional, cell-based. As to conditions: C2BBe1, 96 h.
Series [8] concerns C2BBe1. Put plainly: Cytotoxicity against human C2BBe1 cells assessed as reduction in cell proliferation after 72 hrs by sulforhodamine B assay. The following applies: C2BBe1, 72 h. The series is classed as functional, cell-based.
For series [9], the system named is WiDr. Put plainly: Cytotoxicity against human WiDr cells assessed as reduction in cell proliferation after 48 hrs by sulforhodamine B assay. The series is classed as functional, cell-based.
Series [10] deals with Neutrophil. Put plainly: Inhibition of phorbol myristate acetate-induced human neutrophils oxidative burst assessed as reduction in luminol oxidation preincubated for 5 mins followed by PMA addition measured after 15 mins by chemiluminescence assay. It is filed as functional, cell-based.
Series [11] concerns C2BBe1. Put plainly: Cytotoxicity against human C2BBe1 cells assessed as reduction in cell proliferation up to 200 uM by sulforhodamine B assay. The following applies: TDE = time-dependent effect. The series is classed as functional, cell-based.
Series [12] deals with Neutrophil. Put plainly: Inhibition of phorbol myristate acetate-induced superoxide radical generation in human neutrophils at 100 uM preincubated for 5 mins followed by PMA addition by lucigenin chemiluminescence assay. The series is classed as functional.
For series [13], the system named is Neutrophil. Put plainly: Inhibition of phorbol myristate acetate-induced human neutrophils oxidative burst assessed as reduction in luminol oxidation up to 200 uM preincubated for 5 mins followed by PMA addition measured after 15 mins by chemiluminescence assay. The series is classed as functional.
For series [14], the system named is C2BBe1. Put plainly: Induction of superoxide anion radical production in human C2BBe1 cells after 48 hrs by dihydroethidium probe based flow cytometry. It is filed as functional, cell-based.
In series [15] the test system is WiDr. Put plainly: Cell cycle arrest in human WiDr cells assessed as accumulation at pre-G1 phase at 50 uM after 48 hrs by propidium iodide/RNase staining based flow cytometry. The series is classed as functional.
Series [16] concerns WiDr. Put plainly: Induction of superoxide anion radical production in human WiDr cells after 48 hrs by dihydroethidium probe based flow cytometry. It is filed as functional, cell-based.
The subject of series [17] is WiDr. Put plainly: Cytotoxicity against human WiDr cells assessed as reduction in cell viability at 35 uM after 48 hrs by annexin V/propidium iodide dual staining based flow cytometry relative to control. It is filed as functional.
The subject of series [18] is C2BBe1. Put plainly: Cytotoxicity against human C2BBe1 cells assessed as reduction in cell viability at 22 uM after 48 hrs by annexin V/propidium iodide dual staining based flow cytometry relative to control. The series is classed as functional.
The subject of series [19] is WiDr. Put plainly: Cytotoxicity against human WiDr cells assessed as reduction in cell viability at 50 uM after 48 hrs by annexin V/propidium iodide dual staining based flow cytometry relative to control. It is filed as functional.
Series [20] deals with WiDr. Put plainly: Induction of hydrogen peroxide production in human WiDr cells at 35 to 50 uM after 48 hrs by DCFH2-DA probe based flow cytometry. The series is classed as functional, cell-based.
Series [21] concerns C2BBe1. Put plainly: Induction of apoptosis in human C2BBe1 cells assessed as early apoptotic cells at 50 uM after 48 hrs by annexin V/propidium iodide dual staining based flow cytometry. It is filed as functional, cell-based.
Series [22] relates to WiDr. Put plainly: Induction of superoxide anion radical production in human WiDr cells at 50 uM after 48 hrs by dihydroethidium probe based flow cytometry relative to control. It is filed as functional.
The subject of series [23] is WiDr. Put plainly: Cell cycle arrest in human WiDr cells assessed as accumulation at S phase at 50 uM after 48 hrs by propidium iodide/RNase staining based flow cytometry relative to control. The series is classed as functional.
For series [24], the system named is C2BBe1. Put plainly: Cytotoxicity against human C2BBe1 cells assessed as reduction in cell viability at 50 uM after 48 hrs by annexin V/propidium iodide dual staining based flow cytometry relative to control. The series is classed as functional.
Series [25] concerns C2BBe1. Put plainly: Induction of glutathione production in human C2BBe1 cells at 50 uM after 48 hrs by mercury orange dye based flow cytometry relative to control. It is filed as functional.
For series [26], the system named is C2BBe1. Put plainly: Cell cycle arrest in human C2BBe1 cells assessed as accumulation at G2/M phase at 50 uM after 48 hrs by propidium iodide/RNase staining based flow cytometry relative to control. It is filed as functional.
In series [27] the test system is WiDr. Put plainly: Induction of apoptosis in human WiDr cells assessed as decrease in mitochondrial membrane potential at 50 uM after 48 hrs by JC-1 staining based flow cytometry relative to control. The series is classed as functional.
For series [28], the system named is WiDr. Put plainly: Induction of apoptosis in human WiDr cells assessed as early apoptotic cells at 35 to 50 uM after 48 hrs by annexin V/propidium iodide dual staining based flow cytometry. It is filed as functional, cell-based.

Turning to `O=C(O)/C=C/c1cc(O)c(O)c(O)c1`, the IC50 was 114 µM in the series on WiDr [1]; more than 200 µM with WiDr [3]; 131 µM in the series on C2BBe1 [4]; 136 µM in the series on WiDr [5]; 87.9 µM with C2BBe1 [6]; 39.1 µM with C2BBe1 [7]. The figures for the IC50 with C2BBe1 [8], with WiDr [9] and in the series on Neutrophil [10] were 58.9 µM, more than 200 µM and 19 µM, respectively. The Activity in series [2] was 98%; in the series on C2BBe1 [11] it was “tde”.
As for `CCCCCCNC(=O)/C=C/c1cc(O)c(O)c(O)c1`, the IC50 in the series on WiDr [1] was 37.7 µM; with WiDr [3], 71.4 µM; in the series with C2BBe1 [4], 115 µM; with WiDr [5], 31.7 µM; in the series with C2BBe1 [6], 115 µM; in the series on C2BBe1 [7], 50.9 µM. Besides, the IC50 in the series on C2BBe1 [8] came to 99.8 µM; in the series on WiDr [9], 82.4 µM; in the series on Neutrophil [10], 36 µM. Besides, the figures for the Activity (in series [2]; in the series with C2BBe1 [11]) were 98% and “tde”, respectively.
In [2], `O=C(O)/C=C/c1ccc(O)c(O)c1` [CAFFEIC ACID] yielded an Activity of 98%. The compound further displayed an inhibition at 100 µM in the series with Neutrophil [12] of 84%. Besides, the “inhibition (INH)” value in the series with Neutrophil [13] was 44%.
Consider `CCCCCCNC(=O)/C=C/c1ccc(O)c(O)c1` [CAFFEOYLHEXYLAMIDE], for which the IC50 was 35.5 µM with WiDr [1]; 56.1 µM in the series with WiDr [3]; 37.3 µM with C2BBe1 [4]; 30.8 µM in the series with WiDr [5]; 22 µM in the series with C2BBe1 [6]; 22.6 µM in the series with C2BBe1 [7]. Further, the IC50 in the series with C2BBe1 [8] came out at 23.4 µM; in the series on WiDr [9], 34.6 µM; with Neutrophil [10], 6.6 µM. Further, the Activity entry was “Dose-dependent effect” with C2BBe1 [14]; “Dose-dependent effect” in the series with WiDr [16]; 32.8% in the series on WiDr [17]; 98% in [2]; 11.4% with C2BBe1 [18]; 43.9% with WiDr [19]. Further, the Activity in the series on WiDr [23] is reported as 9.3%; in the series on C2BBe1 [24] it was 14.7%; with C2BBe1 [26], 8.8%. Further, the result with WiDr [15], in the series with WiDr [20], with C2BBe1 [21] and in the series on WiDr [28] was Active. The entries for the “fold change (FC)” value in the series on WiDr [22], in the series with C2BBe1 [25] and with WiDr [27] were 2.63, 1.47 and 1.27, respectively.
Turning to `COc1cc(/C=C/C(=O)O)ccc1O` [FERULATE], the IC50 in the series on WiDr [1], with WiDr [3], in the series with C2BBe1 [4], in the series on WiDr [5], in the series on C2BBe1 [6] and in the series on C2BBe1 [7] was more than 200 µM each time. For the same compound, the IC50 is more than 200 µM in the series with C2BBe1 [8], more than 200 µM in the series with WiDr [9] and 200 µM with Neutrophil [10]. The Activity in series [2] turned out to be 98%.
For `CCCCCCNC(=O)/C=C/c1ccc(O)c(OC)c1` [FERULOYLHEXYLAMIDE], the IC50 in the series with WiDr [1] was 77.4 µM; in the series on WiDr [3], 84.9 µM; in the series on C2BBe1 [4], 132 µM; with WiDr [5] it was 83.3 µM; in the series with C2BBe1 [6], 123 µM; in the series with C2BBe1 [7] it was 60.6 µM. Further, the concentration for half-maximal inhibition (IC50) came to 89.5 µM with C2BBe1 [8], 91 µM in the series with WiDr [9] and 14 µM with Neutrophil [10]. The Activity in series [2] is 98%.
